Experimental findings from ChEMBL document CHEMBL3286381 (J Med Chem, 2014) are described below.

Assay [1] addresses T1, P2Y purinoceptor 11 (Homo sapiens) (UniProt Q96G91).
T1 sequence (whole entry): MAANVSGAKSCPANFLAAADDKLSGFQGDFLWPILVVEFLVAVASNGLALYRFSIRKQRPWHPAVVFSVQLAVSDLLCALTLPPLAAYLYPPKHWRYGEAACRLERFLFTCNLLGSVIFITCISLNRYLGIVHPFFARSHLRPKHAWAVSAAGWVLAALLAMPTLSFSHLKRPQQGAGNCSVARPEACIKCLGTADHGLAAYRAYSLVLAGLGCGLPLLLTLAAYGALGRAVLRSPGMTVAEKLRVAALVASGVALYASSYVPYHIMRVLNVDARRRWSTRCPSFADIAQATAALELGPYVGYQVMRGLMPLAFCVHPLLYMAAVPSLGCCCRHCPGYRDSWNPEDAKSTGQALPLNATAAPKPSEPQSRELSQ
Briefly: Agonist activity at human P2Y11 receptor expressed in human 1321N1 cells assessed as increase of intracellular calcium level up to 10 uM after 30 mins using fura-2 AM by fluorescence assay. The class given is functional, cell-based.

The target of another assay is T2, P2Y purinoceptor 11 (Homo sapiens, UniProt Q96G91).
T2 sequence (Q96G91 whole entry): T1 sequence (whole entry)
Briefly: Agonist activity at human P2Y11 receptor expressed in human 1321N1 cells assessed as increase of intracellular calcium level after 30 mins using fura-2 AM by fluorescence assay. The class given is functional, cell-based.

Calls of active or inactive are those of the source. The rule behind the calls is not given here.

Regarding `Nc1ncnc2c1ncn2[C@@H]1O[C@H](CO[P@](O)(=S)OP(=O)(O)CP(=O)(O)O)[C@@H](O)[C@H]1O`, in assay [1], the result was inactive. The term EC50 denotes the midpoint of the concentration-response curve. In the case of `Nc1ncnc2c1ncn2[C@@H]1O[C@H](CO[P@@](O)(=S)OP(=O)(O)CP(=O)(O)O)[C@@H](O)[C@H]1O`, the EC50 on P2Y purinoceptor 11 came to 900 nM.
